Like-named read-outs stand apart in the source and are kept apart here.
Key:
[1] = tested on: Pseudomonas putida DOT-T1E (wild-type); assay type: cell-based; settings: for concentration that the strain tolerated: Wild-type, aromatic carboxylic acid gradient, 20 h at 30° C.; for tolerance to paraben / tolerance to amino acid: T1E; for tolerance to paraben: gradient up to 2, 1.54, 0.8, 0.3 g/L for methyl-, ethyl-, propyl-, butylparaben; for tolerance to amino acid: gradient 0 to 50 g/L
P. putida PhoA5 = assay type: cell-based, Pseudomonas putida; settings: for concentration that the strain tolerated: aromatic carboxylic acid gradient, 20 h at 30° C.; for tolerance to paraben: same gradients; for tolerance to amino acid: gradient 0 to 50 g/L
PhoA5 pPAT7 = assay type: cell-based, Pseudomonas putida; settings: for tolerance to aromatic carboxylic acids: PhoA5(pPAT7), double diffusion plates; for tolerance to paraben / tolerance to amino acid: PhoA5 pPAT7; for tolerance to paraben: same gradients; for tolerance to amino acid: gradient 0 to 50 g/L
[2] = tested on: Pseudomonas putida DOT-T1E; assay: Halo-inhibition test with antibiotic disks on minimal medium; assay type: cell-based; settings: for size of the inhibition halo: strain T1E, 6-mm disks, µg per disk as, minimal medium; for tolerance/sensitivity to antibiotic: wild-type, Halo-inhibition test
[3] = octanol-water; cited from earlier work
adapted strain = settings: after 11 transfers; slow rate
T1E pPAT7 = assay type: cell-based, Pseudomonas putida; settings: for tolerance to paraben: same gradients; for tolerance to amino acid: gradient 0 to 50 g/L
[4] = tested on: wild-type strain (DOT-T1E); settings: 3 μg/mL EDDHA, M9 with glucose
PhoA5 mutant = settings: 3 μg/mL EDDHA, M9 with glucose; overcome by adding Fe-citrate

p-methoxybenzoate
concentration that the strain tolerated [1]: 19 g/L
concentration that the strain tolerated (P. putida PhoA5): 9.1 g/L
tolerance to aromatic carboxylic acids (PhoA5 pPAT7): as tolerant as the wild-type

CN(C)[C@@H]1C(O)=C(C(N)=O)C(=O)[C@@]2(O)C(O)=C3C(=O)c4c(O)cccc4[C@@](C)(O)[C@H]3C[C@@H]12 [TE, tetracycline]
size of the inhibition halo [2]: 21 mm

Nc1cccc(C(=O)O)c1 [m-aminobenzoate]
concentration that the strain tolerated [1]: 14.8 g/L
concentration that the strain tolerated (P. putida PhoA5): 7.5 g/L
tolerance to aromatic carboxylic acids (PhoA5 pPAT7): as tolerant as the wild-type

O=C(O)c1cn(C2CC2)c2cc(N3CCNCC3)c(F)cc2c1=O [CIP, ciprofloxacine]
size of the inhibition halo [2]: 21 mm
tolerance/sensitivity to antibiotic [2]: sensitive

COc1cccc(C(=O)O)c1 [m-methoxybenzoate]
concentration that the strain tolerated [1]: 12 g/L
concentration that the strain tolerated (P. putida PhoA5): 7.2 g/L
tolerance to aromatic carboxylic acids (PhoA5 pPAT7): as tolerant as the wild-type

CCCCCCC [heptane]
log Pow [3]: 4.5

CC(=O)O [acetate]
acetate concentration at which the adapted strain was able to grow (adapted strain): 200 mM

Cc1ccc(C(=O)O)cc1 [p-methylbenzoate]
concentration that the strain tolerated [1]: 14.5 g/L
concentration that the strain tolerated (P. putida PhoA5): 7.4 g/L
tolerance to aromatic carboxylic acids (PhoA5 pPAT7): as tolerant as the wild-type

CN[C@H](CC(C)C)C(=O)N[C@H]1C(=O)N[C@@H](CC(N)=O)C(=O)N[C@H]2C(=O)N[C@H]3C(=O)N[C@H](C(=O)N[C@H](C(=O)O)c4cc(O)cc(O)c4-c4cc3ccc4O)[C@H](O)c3ccc(c(Cl)c3)Oc3cc2cc(c3O[C@@H]2O[C@H](CO)[C@@H](O)[C@H](O)[C@H]2O[C@H]2C[C@](C)(N)[C@H](O)[C@H](C)O2)Oc2ccc(cc2Cl)[C@H]1O [vancomycin]
tolerance/sensitivity to antibiotic [2]: tolerant

COc1ccccc1C(=O)O [o-methoxybenzoate]
concentration that the strain tolerated [1]: 17 g/L
concentration that the strain tolerated (P. putida PhoA5): 8.5 g/L
tolerance to aromatic carboxylic acids (PhoA5 pPAT7): as tolerant as the wild-type

CCn1cc(C(=O)O)c(=O)c2cc(F)c(N3CCNCC3)cc21 [NOR, norfloxacine]
size of the inhibition halo [2]: 20 mm
tolerance/sensitivity to antibiotic [2]: sensitive

Nc1ccccc1C(=O)O [o-aminobenzoate]
concentration that the strain tolerated [1]: 8.7 g/L
concentration that the strain tolerated (P. putida PhoA5): 5.0 g/L
tolerance to aromatic carboxylic acids (PhoA5 pPAT7): as tolerant as the wild-type

CCCOC(=O)c1ccc(O)cc1 [PB, propylparabene]
tolerance to paraben [1]: >0.8 g/L
tolerance to paraben (P. putida PhoA5): >0.8 g/L
tolerance to paraben (P. putida PhoA5; listed as propylparaben): at least 0.8 g/L
tolerance to paraben (T1E pPAT7): >0.8 g/L
tolerance to paraben (PhoA5 pPAT7): >0.8 g/L

O=C(O)c1cccc(Cl)c1 [m-chlorobenzoate]
concentration that the strain tolerated [1]: 4.5 g/L
concentration that the strain tolerated (P. putida PhoA5): 3.0 g/L
tolerance to aromatic carboxylic acids (PhoA5 pPAT7): as tolerant as the wild-type

CC[C@H]1OC(=O)[C@H](C)[C@@H](O[C@H]2C[C@@](C)(OC)[C@@H](O)[C@H](C)O2)[C@H](C)[C@@H](O[C@@H]2O[C@H](C)C[C@H](N(C)C)[C@H]2O)[C@](C)(O)C[C@@H](C)C(=O)[C@H](C)[C@@H](O)[C@]1(C)O [erythromycin]
tolerance/sensitivity to antibiotic [2]: tolerant

gentamycin [GM]
size of the inhibition halo [2]: 17 mm
tolerance/sensitivity to antibiotic [2]: equally sensitive

C1CCCCC1 [cyclohexane]
log Pow [3]: 3.2

CCOC(=O)c1ccc(O)cc1 [EB, ethylparabene]
tolerance to paraben [1]: >1.54 g/L
tolerance to paraben (P. putida PhoA5): ~1.4 g/L
tolerance to paraben (PhoA5 pPAT7): 1.54 g/L
tolerance to paraben (PhoA5 pPAT7; listed as ethylparaben): as tolerant as the wild-type strain

CCCCCCCCO [1-octanol]
log Pow [3]: 2.8

CC1(C)S[C@@H]2[C@H](NC(=O)[C@H](N)c3ccccc3)C(=O)N2[C@H]1C(=O)O [ampicillin]
tolerance/sensitivity to antibiotic [2]: tolerant

O=C(O)c1ccccc1Cl [o-chlorobenzoate]
concentration that the strain tolerated [1]: 14.5 g/L
concentration that the strain tolerated (P. putida PhoA5): 6.0 g/L
tolerance to aromatic carboxylic acids (PhoA5 pPAT7): as tolerant as the wild-type

CCN1CCN(C(=O)N[C@@H](C(=O)N[C@@H]2C(=O)N3[C@@H]2SC(C)(C)[C@@H]3C(=O)O)c2ccccc2)C(=O)C1=O [PIP, piperacillin]
size of the inhibition halo [2]: 18 mm
tolerance/sensitivity to antibiotic [2]: equally sensitive

CCn1cc(C(=O)O)c(=O)c2ccc(C)nc21 [NA, nalidixic acid]
size of the inhibition halo [2]: 15 mm
tolerance/sensitivity to antibiotic [2]: equally sensitive

N[C@@H](Cc1c[nH]c2ccccc12)C(=O)O [Tryptophan, L-tryptophan]
tolerance to amino acid [1]: 35.3 g/L
tolerance to amino acid ([1]; listed as tryptophan): ~35 g/L
tolerance to amino acid (P. putida PhoA5): 23.5 g/L
tolerance to amino acid (P. putida PhoA5; listed as tryptophan): about 23 g/L
tolerance to amino acid (T1E pPAT7): 38.8 g/L
tolerance to amino acid (PhoA5 pPAT7): 22.9 g/L
tolerance to amino acid (PhoA5 pPAT7; listed as tryptophan): more sensitive than the wild-type

CCc1ccccc1 [ethylbenzene]
log Pow [3]: 3.1

CO/N=C(\C(=O)N[C@@H]1C(=O)N2C(C(=O)O)=C(COC(C)=O)CS[C@H]12)c1csc(N)n1 [CTX, cefotaxime]
size of the inhibition halo [2]: 14 mm
tolerance/sensitivity to antibiotic [2]: sensitive

Cc1ccc(C)cc1 [p-xylene]
log Pow [3]: 3.0

N[C@@H](Cc1ccc(O)cc1)C(=O)O [Tyrosine, L-tyrosine]
tolerance to amino acid [1]: about 40 g/L
tolerance to amino acid (P. putida PhoA5): 25.3 g/L
tolerance to amino acid (P. putida PhoA5; listed as tyrosine): about 23 g/L

[H]/N=C(/N)N[C@H]1[C@H](O)[C@@H](O)[C@H](O[C@@H]2O[C@@H](C)[C@](O)(C=O)[C@H]2O[C@@H]2O[C@@H](CO)[C@H](O)[C@@H](O)[C@@H]2NC)[C@@H](N/C(N)=N\[H])[C@@H]1O [SM, streptomycin]
size of the inhibition halo [2]: 16 mm
tolerance/sensitivity to antibiotic [2]: equally sensitive

C[C@@H](O)[C@H]1C(=O)N2C(C(=O)O)=C(SCCN=CN)C[C@H]12 [IPM, imipenen]
size of the inhibition halo [2]: 26 mm
tolerance/sensitivity to antibiotic [2]: sensitive

N[C@@H](Cc1c[nH]cn1)C(=O)O [Histidine, L-histidine]
tolerance to amino acid [1]: 31.2 g/L
tolerance to amino acid ([1]; listed as histidine): ~31 g/L
tolerance to amino acid (P. putida PhoA5): 22.3 g/L
tolerance to amino acid (P. putida PhoA5; listed as histidine): about 23 g/L
tolerance to amino acid (T1E pPAT7): 30.6 g/L
tolerance to amino acid (PhoA5 pPAT7): 29.4 g/L

COC(=O)c1ccc(O)cc1 [MB, methylparabene]
tolerance to paraben [1]: >2 g/L
tolerance to paraben (P. putida PhoA5): 1.0 g/L
tolerance to paraben (P. putida PhoA5; listed as methylparaben): about 1 g/L
tolerance to paraben (T1E pPAT7): >2 g/L
tolerance to paraben (PhoA5 pPAT7): >2.0 g/L
tolerance to paraben (PhoA5 pPAT7; listed as methylparaben): as tolerant as the wild-type strain

CCCCOC(=O)c1ccc(O)cc1 [BP, butylparabene]
tolerance to paraben [1]: >0.3 g/L
tolerance to paraben (P. putida PhoA5): >0.3 g/L
tolerance to paraben (P. putida PhoA5; listed as butylparaben): ≥ 0.3 g/L
tolerance to paraben (T1E pPAT7): >0.3 g/L
tolerance to paraben (PhoA5 pPAT7): >0.3 g/L

CCCc1ccccc1 [propylbenzene]
log Pow [3]: 3.6

Nc1ccc(C(=O)O)cc1 [p-aminobenzoate]
concentration that the strain tolerated [1]: 13.0 g/L
concentration that the strain tolerated (P. putida PhoA5): 7.8 g/L
tolerance to aromatic carboxylic acids (PhoA5 pPAT7): as tolerant as the wild-type

O=C(O)C(NCCNC(C(=O)O)c1ccccc1O)c1ccccc1O (centres unmarked) [EDDHA, ethylenediamine-di (o-hydroxyphenylacetic acid)]
growth in the presence of iron chelator [4]: grew under all culture conditions
growth in the presence of iron chelator (PhoA5 mutant): severely inhibited

Source: patent publication US7348421B1, “Methods for production of p-hydroxybenzoate in bacteria” (North Carolina State University, priority 2000, dated 2008)
